The values that follow come from patent US20190315775A1, “MODIFIED […] AND PHARMACEUTICAL COMPOSITION HAVING SAME AS ACTIVE INGREDIENT” (KEIO UNIVERSITY, priority 2016, published 2019).

Data set [1] is described as follows: Stability in medium (containing FBS). The format is in vitro ADME. The text has this:
Subsequently, PEG11(E)-TC11 was examined for stability in mouse blood plasma (A) and in medium (B). […] Such degradation is considered to result from a small amount of esterase in FBS (fetal calf serum) contained in the medium.

Data set [2] deals with KMS34 high-risk MM cell line. As to the kind of experiment: WST-1 cell proliferation inhibition (Example 8), KMS34. Type of data set: cell-based. The note with it: Homo sapiens, KMS-34, WST-1, 48 hours, read-out: IC50, cell proliferation inhibitory activity, KMS34. As to the method:
Similar to Example 7, high-risk MM cell lines were treated with drugs, TC11 and PEG5(E)-TC11 at arbitrary concentrations. […] Specifically, each high-risk MM cell line was prepared at 5×10^5 cells/ml, and then seeded at 50 μl per well (2.5×10^4 cells). Drugs such as TC11, and PEG5(E)-TC11 were added to wells at arbitrary concentrations. WST-1 reagent was added at 48 hours after addition of drugs. After 1 hour of reaction at 37° C. in a CO2 incubator, absorbance was measured at a wavelength of 450 nm using a microplate reader. Cell viability was found from an absorbance ratio using absorbance at 0 μM designated as 100%. IC50 was calculated from a semi-logarithmic chart using Microsoft (registered trademark) Excel.

The structures appear in SMILES notation.

In the case of `COCCOCCOCCOCCOCCOCCOCCOCCOCCOCCOCCOCCC(=O)OCCOc1cc2c(cc1N)C(=O)N(c1c(C(C)C)cccc1C(C)C)C2=O` [PEG11(E)-TC11], the Stability in medium result in data set [1] is “slowly degraded even in medium”.

On to `CC(C)c1cccc(C(C)C)c1N1C(=O)c2ccc(N)cc2C1=O` [TC11, 2-(2,6-di-isopropylphenyl)-5-amino-1H-isoindole-1,3-dione, reference compound], for which the IC50 in data set [2] worked out at 6.5 µM.
